This test concerns the target T1, HDAC6 enzyme (Homo sapiens, UniProt Q9UBN7).
T1 construct: transducing full length HDAC6 gene into Sf-9 insect cells; GST; purchased SignalChem; host or cells: Sf-9 insect cells
T1 sequence (Q9UBN7 1-1215): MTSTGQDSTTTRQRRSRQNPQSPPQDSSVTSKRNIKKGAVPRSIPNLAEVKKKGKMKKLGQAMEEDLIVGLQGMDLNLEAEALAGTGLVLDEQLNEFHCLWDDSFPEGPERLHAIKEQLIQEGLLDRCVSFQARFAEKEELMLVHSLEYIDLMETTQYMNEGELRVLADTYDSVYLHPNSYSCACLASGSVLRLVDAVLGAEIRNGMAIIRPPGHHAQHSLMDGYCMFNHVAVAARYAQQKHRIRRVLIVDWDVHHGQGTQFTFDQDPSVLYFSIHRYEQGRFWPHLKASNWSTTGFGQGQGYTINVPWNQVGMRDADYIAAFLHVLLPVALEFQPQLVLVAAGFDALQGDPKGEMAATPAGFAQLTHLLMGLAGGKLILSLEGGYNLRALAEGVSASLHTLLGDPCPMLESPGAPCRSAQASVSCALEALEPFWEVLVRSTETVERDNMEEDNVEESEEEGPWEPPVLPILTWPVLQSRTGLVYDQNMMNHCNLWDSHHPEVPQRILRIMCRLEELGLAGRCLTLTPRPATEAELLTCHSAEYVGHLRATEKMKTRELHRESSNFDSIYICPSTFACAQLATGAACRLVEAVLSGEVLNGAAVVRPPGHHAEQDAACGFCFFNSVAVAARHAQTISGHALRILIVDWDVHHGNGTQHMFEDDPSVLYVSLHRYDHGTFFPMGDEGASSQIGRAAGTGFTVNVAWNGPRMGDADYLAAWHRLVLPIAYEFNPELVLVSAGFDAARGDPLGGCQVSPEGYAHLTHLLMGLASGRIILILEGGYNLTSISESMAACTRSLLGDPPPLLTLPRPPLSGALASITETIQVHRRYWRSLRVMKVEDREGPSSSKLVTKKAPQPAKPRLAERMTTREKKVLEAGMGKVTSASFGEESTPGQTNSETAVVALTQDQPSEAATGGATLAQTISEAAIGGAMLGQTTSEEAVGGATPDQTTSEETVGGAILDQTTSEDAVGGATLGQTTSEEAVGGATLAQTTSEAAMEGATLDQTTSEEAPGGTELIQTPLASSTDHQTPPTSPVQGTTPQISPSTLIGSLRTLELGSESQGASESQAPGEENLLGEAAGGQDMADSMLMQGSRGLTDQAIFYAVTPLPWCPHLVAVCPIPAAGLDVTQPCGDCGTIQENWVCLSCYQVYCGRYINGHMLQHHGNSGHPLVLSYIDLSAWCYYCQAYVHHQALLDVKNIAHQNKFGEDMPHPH
The experiment in a line: HDAC6 enzyme inhibitory activity (HDAC-Glo I/II Assay kit). As to conditions: 10 μM; wells without enzyme = 100% inhibition; read-out: HDAC6 inhibitory rate (%) (10 μM). It counts as biochemical. Summed up:
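Test compound is preincubated 60 min at RT with full-length insect-cell HDAC6 in Tris-HCl pH 7.5 with 135 mM NaCl and 1 mM MgCl2. A 20 min room-temperature HDAC-Glo reaction follows, with luminescent read-out.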
Take `O=C1c2cc(-c3nnc(C(F)F)o3)cc(F)c2CN1c1ccccc1-c1cnn(C(F)F)c1` [Example 390, 6-(5-(difluoro-methyl)-1,3,4-oxadiazol-2-yl)-2-(2-(1-(difluoro-methyl)-1H-pyrazol-4-yl)phenyl)-4-fluoroisoindolin-1-one]: the inhibition at 10 µM came to 100%.
The figure for `N#Cc1cccc(-c2ncccc2N2Cc3ccc(-c4nnc(C(F)F)o4)cc3C2=O)c1` [Example 391, 3-(3-(6-(5-(difluoromethyl)-1,3,4-oxadiazol-2-yl)-1-oxo-1,3-dihydro-2H-isoindol-2-yl)pyridin-2-yl) benzonitrile] is 100%; for `Cn1cc(-c2ccccc2N2Cc3c(F)cc(-c4nnc(C(F)F)o4)cc3C2=O)cn1` [Example 392, 6-(5-(difluoro-methyl)-1,3,4-oxadiazol-2-yl)-4-fluoro-2-(2-(1-methyl-1H-pyrazol-4-yl)phenyl) isoindolin-1-one] it is 99%.
Turning to `O=C1c2cc(-c3nnc(C(F)F)o3)cc(F)c2CN1c1ccccc1-c1cccc(F)c1` [Example 393, 6-(5-(difluoro-methyl)-1,3,4-oxadiazol-2-yl)-4-fluoro-2-(3′-fluorobiphenyl-2-yl)isoindolin-1-one], the inhibition at 10 µM came to 99%.
`Cn1nc(C(F)(F)F)cc1-c1ccccc1N1Cc2c(F)cc(-c3nnc(C(F)F)o3)cc2C1=O` [Example 394, 6-(5-(difluoro-methyl)-1,3,4-oxadiazol-2-yl)-4-fluoro-2-(2-(1-methyl-3-(trifluoro-methyl)-1H-pyrazol-5-yl)phenyl) isoindolin-1-one]: the inhibition at 10 µM turned out to be 99%.
Take `O=C1c2cc(-c3nnc(C(F)F)o3)cnc2CN1Cc1cccc(OC(F)F)c1` [Example 395, 6-(3-(difluoro-methoxy)benzyl)-3-(5-(difluoro-methyl)-1,3,4-oxadiazol-2-yl)-6,7-dihydro-5H-pyrrolo [3,4-b]pyridin-5-one]: the inhibition at 10 µM was 99%.
Turning to `O=C1c2cc(-c3nnc(C(F)F)o3)ccc2CN1c1cccc(F)c1-c1cnn(C(F)F)c1` [Example 396, 6-(5-(difluoro-methyl)-1,3,4-oxadiazol-2-yl)-2-(2-(1-(difluoromethyl)-1H-pyrazol-4-yl)-3-fluorophenyl) isoindolin-1-one], the inhibition at 10 µM was found to be 101%.
With `O=C1c2cc(-c3nnc(C(F)F)o3)ccc2CN1c1cccc(F)c1-c1cccc(Cl)c1` [Example 397, 2-(3′-chloro-6-fluorobiphenyl-2-yl)-6-(5-(difluoro-methyl)-1,3,4-oxadiazol-2-yl) isoindolin-1-one], the inhibition at 10 µM was determined as 100%.
For the compound `O=C1c2cc(-c3nnc(C(F)F)o3)ccc2CN1c1cccc(F)c1-c1cccc(F)c1` [Example 398, 2-(3′,6-difluoro-biphenyl-2-yl)-6-(5-(difluoro-methyl)-1,3,4-oxadiazol-2-yl) isoindolin-1-one], the inhibition at 10 µM stood at 102%.
`O=C1c2cc(-c3nnc(C(F)F)o3)ccc2CN1[C@@H]1CCOC[C@H]1NCC(F)(F)F` [Example 399, 6-(5-(difluoromethyl)-1,3,4-oxadiazol-2-yl)-2-((3S,4R)-3-((2,2,2-trifluoroethyl)amino)tetrahydro-2H-pyran-4-yl)isoindolin-1-one]: the inhibition at 10 µM is 101%.
Consider `O=C1c2cc(-c3nnc(C(F)F)o3)cnc2CN1[C@@H]1CCOC[C@H]1NCC(F)(F)F` [Example 400, 3-(5-(difluoro-methyl)-1,3,4-oxadiazol-2-yl)-6-((3S,4R)-3-((2,2,2-trifluoro-ethyl)amino)tetrahydro-2H-pyran-4-yl)-6,7-dihydro-5H-pyrrolo[3,4-b] pyridin-5-one], for which the inhibition at 10 µM is 99%.
With `N#Cc1cccc(-c2c(Cl)cccc2N2Cc3ccc(-c4nnc(C(F)F)o4)cc3C2=O)c1` [Example 401, 2′-chloro-6′-(6-(5-(difluoro-methyl)-1,3,4-oxadiazol-2-yl)-1-oxo-1,3-dihydro-2H-isoindol-2-yl) biphenyl-3-carbonitrile], the inhibition at 10 µM was determined as 99%.
For the compound `O=C1c2cc(-c3nnc(C(F)F)o3)ccc2CN1c1cccc(Cl)c1-c1cnn(C(F)F)c1` [Example 402, 2-(3-chloro-2-(1-(difluoro-methyl)-1H-pyrazol-4-yl)phenyl)-6-(5-(difluoro-methyl)-1,3,4-oxadiazol-2-yl) isoindolin-1-one], the inhibition at 10 µM was determined as 100%.
Next, `Cn1cc(-c2c(Cl)cccc2N2Cc3ccc(-c4nnc(C(F)F)o4)cc3C2=O)cn1` [Example 403, 2-(3-chloro-2-(1-methyl-1H-pyrazol-4-yl)phenyl)-6-(5-(difluoro-methyl)-1,3,4-oxadiazol-2-yl) isoindolin-1-one]: 102%; `O=C1c2cc(-c3nnc(C(F)F)o3)ccc2CN1c1cccc(Cl)c1-c1cccc(F)c1` [Example 404, 2-(6-chloro-3′-fluoro-biphenyl-2-yl)-6-(5-(difluoro-methyl)-1,3,4-oxadiazol-2-yl) isoindolin-1-one]: 100%; `O=C1c2cc(-c3nnc(C(F)F)o3)ccc2CN1c1ccc(Cl)cc1-c1cnn(C(F)F)c1` [Example 405, 2-(4-chloro-2-(1-(difluoro-methyl)-1H-pyrazol-4-yl)phenyl)-6-(5-(difluoro-methyl)-1,3,4-oxadiazol-2-yl) isoindolin-1-one]: 101%.
As for `O=C1c2cc(-c3nnc(C(F)F)o3)cnc2CN1c1ccc(F)cc1Br` [Example 406, 6-(2-bromo-4-fluorophenyl)-3-(5-(difluoromethyl)-1,3,4-oxadiazol-2-yl)-6,7-dihydro-5H-pyrrolo[3,4-b]pyridin-5-one], the inhibition at 10 µM is 100%.
`N#Cc1cccc(-c2cc(F)ccc2N2Cc3ncc(-c4nnc(C(F)F)o4)cc3C2=O)c1` [Example 407, 2′-(3-(5-(difluoro-methyl)-1,3,4-oxadiazol-2-yl)-5-oxo-5,7-dihydro-6H-pyrrolo[3,4-b]pyridin-6-yl)-5′-fluoro-biphenyl-3-carbonitrile]: the inhibition at 10 µM worked out at 99%.
As to `O=C1c2cc(-c3nnc(C(F)F)o3)cnc2CN1c1ccc(F)cc1-c1cnn(C(F)F)c1` [Example 408, 3-(5-(difluoro-methyl)-1,3,4-oxadiazol-2-yl)-6-(2-(1-(difluoro-methyl)-1H-pyrazol-4-yl)-4-fluorophenyl)-6,7-dihydro-5H-pyrrolo[3,4-b] pyridin-5-one], the inhibition at 10 µM is 99%.
Consider `O=C1c2cc(-c3nnc(C(F)F)o3)cnc2CN1c1ccc(F)cc1-c1cccc(F)c1` [Example 409, 6-(3′,5-difluoro-biphenyl-2-yl)-3-(5-(difluoro-methyl)-1,3,4-oxadiazol-2-yl)-6,7-dihydro-5H-pyrrolo [3,4-b]pyridin-5-one], for which the inhibition at 10 µM turned out to be 99%.
`O=C1c2cc(-c3nnc(C(F)F)o3)cnc2CN1c1ccc(F)cc1-c1cccc(Cl)c1` [Example 410, 6-(3′-chloro-5-fluoro-biphenyl-2-yl)-3-(5-(difluoro-methyl)-1,3,4-oxadiazol-2-yl)-6,7-dihydro-5H-pyrrolo [3,4-b]pyridin-5-one]: the inhibition at 10 µM was determined as 101%.
Next, `Cn1cc(-c2cc(F)ccc2N2Cc3ncc(-c4nnc(C(F)F)o4)cc3C2=O)cn1` [Example 411, 3-(5-(difluoro-methyl)-1,3,4-oxadiazol-2-yl)-6-(4-fluoro-2-(1-methyl-1H-pyrazol-4-yl)phenyl)-6,7-dihydro-5H-pyrrolo[3,4-b] pyridin-5-one]: 100%; `Cn1nc(C(F)(F)F)cc1-c1cc(F)ccc1N1Cc2ncc(-c3nnc(C(F)F)o3)cc2C1=O` [Example 412, 3-(5-(difluoro-methyl)-1,3,4-oxadiazol-2-yl)-6-(4-fluoro-2-(1-methyl-3-(trifluoro-methyl)-1H-pyrazol-5-yl)phenyl)-6,7-dihydro-5H-pyrrolo[3,4-b] pyridin-5-one]: 100%.
For `CC(C)(C)OC(=O)N[C@H]1COCC[C@H]1N1Cc2ccc(-c3nnc(C(F)F)o3)cc2C1=O` [Example 413, tert-butyl ((3R,4R)-4-(6-(5-(difluoro-methyl)-1,3,4-oxadiazol-2-yl)-1-oxo-1,3-dihydro-2H-isoindol-2-yl)tetrahydro-2H-pyran-3-yl) carbamate], the inhibition at 10 µM turned out to be 98%.

Values taken from patent US10435399B2, “HDAC6 inhibitory heterocyclic compound” (TAKEDA PHARMACEUTICAL COMPANY LIMITED, priority 2017, dated 2019).
